In patent US20260285850A1, “SUBSTITUTED OXAZOLIDINONES AND IMIDAZOLINONES AS HERBICIDES” (FMC CORPORATION, priority 2023, published 2026):

Assays:
Format in all cases: in vivo
[1] = system: ducksalad (Heteranthera limosa); assay: Test B flooded paddy test, visual plant response rating 0-100; settings: 250 g ai/ha, Flood, applied to paddy water, evaluated after 13 days
How it was run: (§1)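 Treatment occurs at the 2-leaf stage by adding compound to floodwater standing 3 cm above the soil, a level kept for the whole test. Plants stay in the greenhouse 13 days before visual comparison with controls.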

rice (Oryza sativa) = assay: as above; settings: 250 g ai/ha, Flood, applied to paddy water, evaluated after 13 days
How it was run: as §1

[2] = system: barnyardgrass (Echinochloa crusgalli); assay: as above; settings: 250 g ai/ha, Flood, applied to paddy water, evaluated after 13 days
How it was run: as §1

[3] = system: sedge, umbrella (small-flower umbrella sedge, Cyperus difformis); assay: as above; settings: 250 g ai/ha, Flood, applied to paddy water, evaluated after 13 days
How it was run: as §1

[4] = system: green foxtail (Setaria viridis); assay: Test A preemergence soil spray, visual injury rating 0-100; settings: 10 days, 0 = no effect, 100 = complete control
How it was run: (§2)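 Seeds sown in loam-sand blend got a preemergence directed soil spray, or emerged plants (2-10 cm, one- to two-leaf) got a postemergence spray, of compound in non-phytotoxic solvent with surfactant. After 10 days in greenhouse, injury rated visually versus untreated controls on a 0 (no effect) to 100 (complete control) scale.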

[5] = system: oat, wild (wild oat, Avena fatua); assay: as above; settings: 10 days, 0 = no effect, 100 = complete control
How it was run: as §2

[6] = system: barnyardgrass (Echinochloa crus-galli); assay: as above; settings: 10 days, 0 = no effect, 100 = complete control
How it was run: as §2

corn (Zea mays) [7] = assay: as above; settings: 10 days, 0 = no effect, 100 = complete control
How it was run: as §2

[8] = system: ryegrass, Italian (italian ryegrass, Lolium multiflorum); assay: as above; settings: 10 days, 0 = no effect, 100 = complete control
How it was run: as §2

kochia (Bassia scoparia) [9] = assay: as above; settings: 10 days, 0 = no effect, 100 = complete control
How it was run: as §2

[10] = system: wheat (Triticum aestivum); assay: as above; settings: 10 days, 0 = no effect, 100 = complete control
How it was run: as §2

[11] = system: blackgrass (Alopecurus myosuroides); assay: as above; settings: 10 days, 0 = no effect, 100 = complete control
How it was run: as §2

soybean (Glycine max) [12] = assay: as above; settings: 10 days, 0 = no effect, 100 = complete control
How it was run: as §2

[13] = system: ragweed (common ragweed, Ambrosia artemisiifolia); assay: as above; settings: 10 days, 0 = no effect, 100 = complete control
How it was run: as §2

[14] = system: palmer (palmer amaranth, palmer pigweed, Amaranthus palmeri); assay: as above; settings: 10 days, 0 = no effect, 100 = complete control
How it was run: as §2

[15] = system: green foxtail (Setaria viridis); assay: Test A postemergence application, visual injury rating 0-100; settings: 10 days
How it was run: as §2

[16] = system: oat, wild (wild oat, Avena fatua); assay: as above; settings: 10 days
How it was run: as §2

[17] = system: horseweed (Erigeron canadensis); assay: as above; settings: 10 days
How it was run: as §2

[18] = system: barnyardgrass (Echinochloa crus-galli); assay: as above; settings: 10 days
How it was run: as §2

corn (Zea mays) [19] = assay: as above; settings: 10 days
How it was run: as §2

[20] = system: galium (catchweed bedstraw, Galium aparine); assay: as above; settings: 10 days
How it was run: as §2

[21] = system: ryegrass, Italian (italian ryegrass, Lolium multiflorum); assay: as above; settings: 10 days
How it was run: as §2

kochia (Bassia scoparia) [22] = assay: as above; settings: 10 days
How it was run: as §2

[23] = system: wheat (Triticum aestivum); assay: as above; settings: 10 days
How it was run: as §2

[24] = system: blackgrass (Alopecurus myosuroides); assay: as above; settings: 10 days
How it was run: as §2

soybean (Glycine max) [25] = assay: as above; settings: 10 days
How it was run: as §2

[26] = system: ragweed (common ragweed, Ambrosia artemisiifolia); assay: as above; settings: 10 days
How it was run: as §2

[27] = system: palmer (palmer amaranth, palmer pigweed, Amaranthus palmeri); assay: as above; settings: 10 days
How it was run: as §2

[28] = 31 g ai/ha, postemergence, 0 = no effect, 100 = complete control
[29] = Postemergence, 125 g ai/ha, 0 is no effect, 100 is complete control

## COC(=O)C1C=CC(NC(=O)C2(C)CN(c3cc(F)cc(Cl)c3)C(=O)O2)C1 (stereo not shown) [Compound 17]
[1]
  Plant response rating, Ducksalad (0 to 100 scale, 0 is no effect and 100 is complete control): 70
Rice (Oryza sativa)
  Plant response rating, Rice (0 to 100 scale, 0 is no effect and 100 is complete control): 10
[2]
  Plant response rating, Barnyardgrass (0 to 100 scale, 0 is no effect and 100 is complete control): 70
[3]
  Plant response rating, Sedge, Umbrella (0 to 100 scale, 0 is no effect and 100 is complete control): 60
[4]; 31 g ai/ha
  Foxtail, Green plant response rating (0-100): 50
[4]; 125 g ai/ha
  Foxtail, Green plant response rating (0 to 100 scale): 100
[5]; 31 g ai/ha
  Oat, Wild plant response rating (0-100): 10
[5]; 125 g ai/ha
  Oat, Wild plant response rating (0 to 100 scale): 80
[6]; 31 g ai/ha
  Barnyardgrass plant response rating (0-100): 80
[6]; 125 g ai/ha
  Barnyardgrass plant response rating (0 to 100 scale): 100
Corn (Zea mays) [7]; 31 g ai/ha
  Corn plant response rating (0-100): 20
Corn (Zea mays) [7]; 125 g ai/ha
  Corn plant response rating (0 to 100 scale): 80
[8]; 31 g ai/ha
  Ryegrass, Italian plant response rating (0-100): 90
[8]; 125 g ai/ha
  Ryegrass, Italian plant response rating (0 to 100 scale): 90
Kochia (Bassia scoparia) [9]; 31 g ai/ha
  Kochia plant response rating (0-100): 50
Kochia (Bassia scoparia) [9]; 125 g ai/ha
  Kochia plant response rating (0 to 100 scale): 100
[10]; 31 g ai/ha
  Wheat plant response rating (0-100): 80
[10]; 125 g ai/ha
  Wheat plant response rating (0 to 100 scale): 90
[11]; 31 g ai/ha
  Blackgrass plant response rating (0-100): 20
[11]; 125 g ai/ha
  Blackgrass plant response rating (0 to 100 scale): 70
Soybean (Glycine max) [12]; 31 g ai/ha
  Soybean plant response rating (0-100): 0
Soybean (Glycine max) [12]; 125 g ai/ha
  Soybean plant response rating (0 to 100 scale): 80
[13]; 31 g ai/ha
  Ragweed plant response rating (0-100): 20
[13]; 125 g ai/ha
  Ragweed plant response rating (0 to 100 scale): 40
[14]; 31 g ai/ha
  Amaranth, Palmer plant response rating (0-100): 70
[14]; 125 g ai/ha
  Amaranth, Palmer plant response rating (0 to 100 scale): 100
[15]; [28]
  Foxtail, Green plant response rating (0-100): 80
[15]; [29]
  Foxtail, Green plant response rating (0 to 100 scale): 90
[16]; [28]
  Oat, Wild plant response rating (0-100): 90
[16]; [29]
  Oat, Wild plant response rating (0 to 100 scale): 90
[17]; [28]
  Horseweed plant response rating (0-100): 30
[17]; [29]
  Horseweed plant response rating (0 to 100 scale): 70
[18]; [28]
  Barnyardgrass plant response rating (0-100): 100
[18]; [29]
  Barnyardgrass plant response rating (0 to 100 scale): 100
Corn (Zea mays) [19]; [28]
  Corn plant response rating (0-100): 70
Corn (Zea mays) [19]; [29]
  Corn plant response rating (0 to 100 scale): 100
[20]; [28]
  Galium plant response rating (0-100): 80
[20]; [29]
  Galium plant response rating (0 to 100 scale): 80
[21]; [28]
  Ryegrass, Italian plant response rating (0-100): 90
[21]; [29]
  Ryegrass, Italian plant response rating (0 to 100 scale): 90
Kochia (Bassia scoparia) [22]; [28]
  Kochia plant response rating (0-100): 60
Kochia (Bassia scoparia) [22]; [29]
  Kochia plant response rating (0 to 100 scale): 70
[23]; [28]
  Wheat plant response rating (0-100): 90
[23]; [29]
  Wheat plant response rating (0 to 100 scale): 90
[24]; [28]
  Blackgrass plant response rating (0-100): 60
[24]; [29]
  Blackgrass plant response rating (0 to 100 scale): 90
Soybean (Glycine max) [25]; [28]
  Soybean plant response rating (0-100): 50
Soybean (Glycine max) [25]; [29]
  Soybean plant response rating (0 to 100 scale): 90
[26]; [28]
  Ragweed plant response rating (0-100): 30
[26]; [29]
  Ragweed plant response rating (0 to 100 scale): 80
[27]; [28]
  Amaranth, Palmer plant response rating (0-100): 70
[27]; [29]
  Amaranth, Palmer / Pigweed, Palmer plant response rating (0 to 100 scale): 90
